Measurements published in patent publication US20260027125A1, “AN ANTIBACTERIAL PARENTERAL FORMULATION AND METHODS THEREOF” (BUGWORKS RESEARCH INDIA PVT. LTD., priority 2022, published 2026).
Structures can show the parent of a compound that is named as a salt.

Columns and labels:
[1] = system: Proteus mirabilis, vulgaris; assay: microbe, parasite or virus in culture; type: cell-based
[2] = system: Enterobacter cloacae; assay: microbe, parasite or virus in culture; type: cell-based
[3] = system: Enterococcus faecalis; assay: microbe, parasite or virus in culture; type: cell-based
[4] = system: Morganella morgannii; assay: microbe, parasite or virus in culture; type: cell-based
[5] = system: Achromobacter spp.; assay: microbe, parasite or virus in culture; type: cell-based
[6] = system: Stenotrophomonas maltophilia; assay: microbe, parasite or virus in culture; type: cell-based
[7] = system: Bacteroides fragilis (anaerobe); assay: microbe, parasite or virus in culture; type: cell-based
[8] = system: Hemophilus influenzae; assay: microbe, parasite or virus in culture; type: cell-based
[9] = system: A. baumannii ATCC 17978; assay: Neutropenic murine model of thigh infection; type: in vivo, Acinetobacter baumannii; conditions: neutropenic mice
[10] = system: Providencia spp.; assay: microbe, parasite or virus in culture; type: cell-based
[11] = system: Burkholderia mallei; assay: microbe, parasite or virus in culture; type: cell-based
[12] = system: Pseudomonas aeruginosa; assay: microbe, parasite or virus in culture; type: cell-based
[13] = system: Yersinia pestis; assay: microbe, parasite or virus in culture; type: cell-based
[14] = system: Clostridium difficile (anaerobe); assay: microbe, parasite or virus in culture; type: cell-based
[15] = system: Klebsiella oxytoca, aerogenes; assay: microbe, parasite or virus in culture; type: cell-based
[16] = system: Serratia marcescens; assay: microbe, parasite or virus in culture; type: cell-based
[17] = system: Coagulase-negatives Staphylococcus; assay: microbe, parasite or virus in culture; type: cell-based
[18] = system: Neisseria gonorrhoea
[19] = Photostability study (ICH-Q1B); type: physicochemical; conditions: ICH-Q1B illumination
[20] = pH solution stability study; type: physicochemical
Description: The weighed quantity of compound of Formula (I) formate salt was added to each buffers system and dissolved. Volume make up was performed with WFI. The 5 mL of sample was filled in 5 mL USP Type I Vials. Vials were stopped and sealed. These vials were kept at 25° C. for stability study. The blank buffers/placebo samples were also placed along with active samples.

[21] = system: Legionella pneumophila; assay: microbe, parasite or virus in culture; type: cell-based
[22] = system: Campylobacter sp.; assay: microbe, parasite or virus in culture; type: cell-based
[23] = system: Staphylococcus aureus; assay: microbe, parasite or virus in culture; type: cell-based
[24] = system: Citrobacter freundii; assay: microbe, parasite or virus in culture; type: cell-based
[25] = system: Fusobacterium spp. (anaerobe); assay: microbe, parasite or virus in culture; type: cell-based
[26] = system: Enterococcus faecium; assay: microbe, parasite or virus in culture; type: cell-based
[27] = system: Mycoplasma species (atypical); assay: microbe, parasite or virus in culture; type: cell-based
[28] = Legionella pneumophila clinical isolates, N 35

Cn1c(=O)ccc2ccc(F)c(CCNC[C@H]3CN(c4cnc5c(n4)NC(=O)CO5)C(=O)O3)c21 [compound of Formula (I) formate salt, (S)-6-(5-(((2-(7-fluoro-1-methyl-2-oxo-1,2-dihydroquinolin-8-yl)ethyl)amino)methyl)-2-oxooxazolidin-3-yl)-2H-pyrazino[2,3-b][1,4]oxazin-3(4H)-one formate]
MIC Range, high end [1]: 2 µg/mL | MIC Range, low end [1]: 0.03 µg/mL | MIC50 ([1]; Proteus mirabilis): 0.12 µg/mL | MIC90 ([1]; Proteus mirabilis): 0.5 µg/mL | MIC Range, high end [2]: 32 µg/mL | MIC Range, low end [2]: ≤0.015 µg/mL | MIC50 ([2]; Enterobacter cloacae): 0.25 µg/mL | MIC90 ([2]; Enterobacter cloacae): 1 µg/mL | MIC Range, high end [3]: 0.25 µg/mL | MIC Range, low end [3]: <0.015 µg/mL | MIC50 ([3]; Enterococcus faecalis): 0.03 µg/mL | MIC90 ([3]; Enterococcus faecalis): 0.06 µg/mL | MIC Range, high end [4]: 8 µg/mL | MIC Range, low end [4]: ≤0.015 µg/mL | MIC50 ([4]; Morganella): 0.12 µg/mL | MIC90 ([4]; Morganella): 0.5 µg/mL | MIC Range, high end [5]: 0.5 µg/mL | MIC Range, low end [5]: ≤0.015 µg/mL | MIC50 ([5]; Achromobacter): 0.06 µg/mL | MIC90 ([5]; Achromobacter): 0.12 µg/mL | MIC Range, high end [6]: 2 µg/mL | MIC Range, low end [6]: 0.03 µg/mL | MIC50 ([6]; Stenotrophomonas maltophilia): 0.06 µg/mL | MIC90 ([6]; Stenotrophomonas maltophilia): 0.25 µg/mL | MIC Range, high end [7]: 8 µg/mL | MIC Range, low end [7]: ≤0.015 µg/mL | MIC50 ([7]; Bacteroides fragilis): 0.06 µg/mL | MIC90 ([7]; Bacteroides fragilis): 0.25 µg/mL | MIC Range, high end [8]: ≤0.015 µg/mL | MIC Range, low end [8]: ≤0.015 µg/mL | MIC50 ([8]; Haemophilus influenzae): ≤ 0.015 µg/mL | MIC90 ([8]; Haemophilus influenzae): ≤ 0.015 µg/mL | effect on bacterial burden in thigh ([9]; SC 10 mg/kg q8h, 26 hours): effective at reducing | effect on bacterial burden in thigh ([9]; SC 30 mg/kg q8h, 26 hours): effective at reducing | effect on bacterial burden in thigh ([9]; SC 60 mg/kg q8h, 26 hours): either a bacteriostatic or killing effect | effect on bacterial burden in thigh ([9]; SC 90 mg/kg q8h, 26 hours): logarithmic killing | effect on bacterial burden in thigh ([9]; SC 120 mg/kg q8h, 26 hours): logarithmic killing | efficacy compared with polymyxin B (SC 25 mg/kg q8h) ([9]; doses ≥90 mg/kg q8h SC): more effective | efficacy compared with subcutaneous meropenem (200 mg/kg q8h) ([9]; doses ≥90 mg/kg q8h SC): more effective | effect on bacterial burden in thigh ([9]; ≥60 mg/kg q8h SC, across three replicate studies): logarithmic killing | MIC Range, high end [10]: 32 µg/mL | MIC Range, low end [10]: 0.06 µg/mL | MIC50 ([10]; Providencia): 0.5 µg/mL | MIC90 ([10]; Providencia): 2 µg/mL | MIC50 [11]: 0.25 µg/mL | MIC90 [11]: 1 µg/mL | MIC Range, high end ([11]; N 36 strains): 4 µg/mL | MIC Range, low end ([11]; N 36 strains): ≤0.015 µg/mL | MIC Range, high end [12]: 8 µg/mL | MIC Range, low end [12]: <0.015 µg/mL | MIC50 ([12]; Pseudomonas aeruginosa): 0.5 µg/mL | MIC90 ([12]; Pseudomonas aeruginosa): 1 µg/mL | MIC50 [13]: ≤ 0.015 µg/mL | MIC90 [13]: ≤ 0.015 µg/mL | MIC Range, high end ([13]; N 35 strains): ≤0.015 µg/mL | MIC Range, low end ([13]; N 35 strains): ≤0.015 µg/mL | MIC Range, high end [14]: 0.06 µg/mL | MIC Range, low end [14]: <0.015 µg/mL | MIC50 ([14]; Clostridioides difficile): < 0.015 µg/mL | MIC90 ([14]; Clostridioides difficile): 0.03 µg/mL | MIC Range, high end [15]: 4 µg/mL | MIC Range, low end [15]: 0.06 µg/mL | MIC50 ([15]; Klebsiella oxytoca): 0.25 µg/mL | MIC90 ([15]; Klebsiella oxytoca): 0.5 µg/mL | MIC Range, high end [16]: 32 µg/mL | MIC Range, low end [16]: 0.03 µg/mL | MIC50 ([16]; Serratia marcescens): 0.25 µg/mL | MIC90 ([16]; Serratia marcescens): 1 µg/mL | MIC Range, high end [17]: 0.03 µg/mL | MIC Range, low end [17]: <0.015 µg/mL | MIC50 ([17]; Staphylococcus): < 0.015 µg/mL | MIC90 ([17]; Staphylococcus): < 0.015 µg/mL | MIC Range, high end [18]: ≤0.015 µg/mL | MIC Range, low end [18]: ≤0.015 µg/mL | sensitivity to light [19]: sensitive to light | stability ([20]; acid pH (<5)): very stable | stability ([20]; liquid state (Solution/Suspension)): highly unstable | stability ([20]; neutral to alkaline pH range (pH 5.0 to 10.0)): unstable | solution stability upto ([20]; pH 3.0-pH 5.0): ≤ 24 h | MIC50 ([21]; Legionella pneumophila): ≤ 0.015 µg/mL | MIC90 ([21]; Legionella pneumophila): ≤ 0.015 µg/mL | MIC Range, high end [21, 28]: ≤0.015 µg/mL | MIC Range, low end [21, 28]: ≤0.015 µg/mL | MIC Range, high end [22]: 0.03 µg/mL | MIC Range, low end [22]: ≤0.015 µg/mL | MIC50 ([22]; Campylobacter): ≤ 0.015 µg/mL | MIC90 ([22]; Campylobacter): ≤ 0.015 µg/mL | MIC Range, high end [23]: 0.5 µg/mL | MIC Range, low end [23]: <0.015 µg/mL | MIC50 ([23]; Staphylococcus aureus): 0.03 µg/mL | MIC90 ([23]; Staphylococcus aureus): 0.03 µg/mL | MIC Range, high end [24]: 8 µg/mL | MIC Range, low end [24]: 0.03 µg/mL | MIC50 ([24]; Citrobacter freundii): 0.25 µg/mL | MIC90 ([24]; Citrobacter freundii): 1 µg/mL | MIC Range, high end [25]: 0.5 µg/mL | MIC Range, low end [25]: ≤0.015 µg/mL | MIC50 ([25]; Fusobacterium): ≤ 0.015 µg/mL | MIC90 ([25]; Fusobacterium): ≤ 0.015 µg/mL | MIC Range, high end [26]: 0.5 µg/mL | MIC Range, low end [26]: <0.015 µg/mL | MIC50 ([26]; Enterococcus faecium): 0.03 µg/mL | MIC90 ([26]; Enterococcus faecium): 0.12 µg/mL | MIC Range, high end [27]: ≤0.015 µg/mL | MIC Range, low end [27]: ≤0.015 µg/mL | MIC50 ([27]; Mycoplasma leachii): ≤ 0.015 µg/mL | MIC90 ([27]; Mycoplasma leachii): ≤ 0.015 µg/mL
